Laboratory results from patent US10166236B2, “Pharmaceutical formulations comprising substituted pyrazolo[5,1-c]pyrido[4,3-e][1,2,4]triazines for treating lysosomal storage disorders” (Perlara PBC, priority 2016, dated 2019).

Columns and labels:
[1] = tested on: Coriell GM18453 (I1061T/I1061T) cells; test: Filipin staining of cholesterol in NPC patient fibroblasts; format: cell-based, human; conditions: 10 μM; for amount of cytoplasmic free/unesterified cholesterol as visualized by filipin staining, relative to vehicle control: 48 hr incubation, FIG. 1
Method: Compound 1 was tested in vitro for its effect on cholesterol localization in NPC fibroblasts. The following experiments utilized Coriell GM18453 (I1061T/I1061T) cells which are immortalized cell lines prepared from NPC patient fibroblasts. These cells have a known deficiency in cholesterol esterification. Compound 1 (FIG. 1B), U18666A (positive control, FIG. 1C), and DMSO (vehicle control, FIG. 1A) were individually dispensed into 96 well In Vitro Scientific glass bottom black walled plates using the Echo acoustic liquid handler for the final concentrations indicated. Cells were suspended in media (DMEM, 5% FBS, 1% P/S, 2 mM L-glutamine) and then added to each well at 1750 cells per well. The final concentration of Compound 1 and […] was 10 μM. After a 48 hr incubation cells were fixed and stained with filipin using components from the Cholesterol Cell Based Detection Kit from Cayman. Filipin was used at a final concentration of 50 μg/mL. Cells were imaged using the ImageXpress from Molecular Devices and analyzed with MetaXpress. […] The experiment was repeated in GM18453 cells except that filipin staining was assessed in one set of wells every 24 hours for a total of five days. FIG. 2A provides an exemplary photomicrograph of a cells treated with vehicle control. There were no notable changes to the filipin staining of the vehicle-treated over the five day culture period, FIG. 2B-2F are representative photomicrographs of the Compound 1-treated cells after 1-5 days in culture, respectively.

[2] = tested on: NPC1 null worms; test: Egg count in NPC1 null nematodes (rescue of nematode model of NPC); format: in vivo, C. elegans; conditions: Day 1 adults; for number of eggs per adult worm relative to DMSO control or SAHA: with or without supplemental cholesterol, p<0.001 relative to DMSO, Student's t-test
Method: This experiment tested the ability of Compound 1 to rescue NPC-1 null nematodes. A population of NPC1 null worms was scaled up on large petri plates (100 mm or 60 mm) to produce a large population of gravid adults. One day prior to assay, the adult worms were bleached to obtain all eggs. Eggs were allowed to hatch overnight in M9 by rocking tubes. On day of assay, the presence of L1 larvae was confirmed. A lawn of HB101 bacteria were grown on NGM agar plates (4 ml). The plates were prepared either with or without exogenous cholesterol. […] An additional set of plates prepared with 25% cremaphor alone was used as a second vehicle control. Fifty to seventy L1 larvae were added to each plate and incubated at room temperature for two days. On day 3, L1 worms had matured into Day 1 adults bearing row of eggs. Eggs were counted microscopically and the average number of eggs per adult worm for each incubation condition was calculated. […] There was no statistically significant difference between treatment with DMSO control in the 25% cremaphor carrier relative to the carrier alone (data not shown).

Compound | amount of cytoplasmic free/unesterified cholesterol as visualized by filipin staining, relative to vehicle control [1] | amount of cytoplasmic free/unesterified cholesterol (filipin staining), time course ([1]; assessed every 24 hours for five days, FIG. 2) | number of eggs per adult worm relative to DMSO control or SAHA ([2]; 25 μM, FIG. 3C) | egg laying deficit of NPC null nematodes (eggs per adult worm) ([2]; 75 μM, FIG. 3B) | number of eggs per adult worm relative to DMSO control or SAHA ([2]; 0.5%, FIG. 3E)
CN(C)CCCn1ccc2c(nnc3c(-c4ccc(F)cc4)cnn32)c1=O [Compound 1, 11-[3-(Dimethylamino)propyl]-5-(p-fluorophenyl)-2.3.7.8.11-pentazatricyclo[7.4.0.0^2,6]trideca-1(9),3,5,7,12-pentaen-10-one] | increase in the amount of cytoplasmic free/unesterified cholesterol | Increases in the amount of cytoplasmic free/unesterified cholesterol were observed after a 24 hour culture period and the effect was sustained throughout the five day study period | statistically significant increase in the number of eggs per adult worm |  | 
CCN(CC)CCO[C@H]1CC[C@@]2(C)C(=CC[C@@H]3[C@@H]2CC[C@]2(C)C(=O)CC[C@@H]32)C1 [Compound U18666A] | increase in the amount of cytoplasmic free/unesterified cholesterol |  |  | significantly exacerbates the egg laying deficit | 
cyclodextrin |  |  |  |  | statistically significant increase in the number of eggs per adult worm
